The assay concerns adult, male Wistar rats. The experiment in a line: Sleep measurement by EEG in rats (in vivo sleep study). Details: species or system rat. The conditions noted are these: for Maximal change in REM sleep: cumulative time in REM sleep compared to vehicle controls, first 24 hours after dose. The procedure: Sleep measurement by EEG: For the EEG sleep measurements, adult, male Wistar rats were anesthetized and surgically implanted with a cranial implant for chronic electro-encephalogram (EEG) and electromyogram (EMG) recording. At least three weeks were allowed for the animal to recover from surgery. Food and water were available ad libitum and the ambient temperature was 24±1° C. A 24-hr light-dark cycle (LD 12:12) was maintained throughout the study using fluorescent light. Light intensity averaged 35-40 lux at mid-level inside the cage. Animals were undisturbed for two days before and after each treatment. Sleep and wakefulness were determined using a microcomputer-based sleep-wake and physiological monitoring system. The system monitored amplified EEG (×10,000, bandpass 1-30 Hz; digitization rate 100 Hz, integrated EMG (bandpass 10-100 Hz, RMS integration), and telemetered body temperature and non-specific locomotor activity and drinking activity, from 16 rodents simultaneously. Arousal states were classified on-line as NREM sleep, REM sleep, wake, or theta-domihated wake every 10 seconds using EEG period and amplitude feature extraction and ranked membership algorithms. Individually taught EEG-arousal-state templates and EMG criteria differentiated REM sleep from theta-dominated wake. Drinking and locomotor activity were automatically recorded as discrete events every 10 seconds, and body temperature was recorded each minute. Data quality was assured by frequent on-line inspection of the EEG and EMG signals.
Drug Treatment: A NPY Y1 receptor antagonist was administered at 5, 10, 20 or 40 mg/kg in 0.25% methylcellulose vehicle. The NPY Y5 receptor antagonist of Formula la was administered at 5, 10 or 40 mg/kg and the NPY Y5 receptor antagonist of Formula IIa was administered at 10 and 40 mg/kg (both in 32% hydroxypropyl-betacyclodextrin vehicle). Drugs and vehicles were administered by oral gavage. Rats were randomly assigned to receive treatments in […]. The recording duration for the bioassay was 30 hours before and after treatment. At least 7 days “washout” elapsed between each treatment.
Variables recorded by EEG sleep-wake variables included NREM, REM, total sleep, and duration of sleep and wake bouts and were defined and computed as follows: • Wakefulness, NREM sleep, and REM sleep: percent time in state per hour or per 5 minute bin. • Cumulation of total sleep, NREM sleep, REM sleep, locomotor activity, and drink activity: post-treatment accumulated change over baseline. Change—from-baseline scores were computed by subtracting from the post-treatment value the baseline value at the corresponding circadian time. The change-from-baseline scores were then cumulated in hourly bins, and these values were plotted. • Sleep, wakefulness, and REM sleep bouts: The longest bout and the average bout of uninterrupted sleep each hour, measured in minutes. “Interruption” is defined as 3 or more consecutive 10 sec epochs of wakefulness. An analogous quantification is carried out for bouts of wakefulness and REM sleep. […] Pre-clinical measures of sleep bout length are also strong predictors of soporific efficacy in humans. • Locomotor activity: counts per hour or counts per 5 minute bin. • Locomotor activity intensity: locomotor activity counts per minute of EEG-defined wakefulness. This variate allows an assessment of locomotor activity that is independent of the amount of time awake, thus, it may be used to quantify the specificity of a wake- or sleep-promoting effect (Edgar et al. 1997).
Statistical Analysis—Mixed Model: Treatment effects were analyzed by a mixed model for repeated measures data. Mixed models were performed comparing each active-treatment with vehicle. For all models analysis was based on post-treatment hours with each hour adjusted for the corresponding baseline hour. Adjusting for baseline takes into account any differences between groups during baseline. […]

Where [1] appears, read: 5, 10 and 40 mg/kg, oral gavage.

This is an account of results in patent US20050119285A1, “Treatment of neurological disorders related to rapid eye movement (REM) sleep disturbances with NPY Y5 receptor antagonists” (Pfizer Inc, priority 2003, published 2005).

Marks after values point to notes of the source that are not given here. A value given as a limit tells only on which side of the number the result lay.

With `O=C1OC2(CCN(C(=O)Nc3ccc(C(F)(F)F)cn3)CC2)c2ccccc21` [Formula Ia], under setting [1], the “Effect on NREM sleep” value is “increased NPEM sleep”, the “Effect on REM sleep” value is “significantly reduced REM sleep in a dose-related manner” and the “Effect on sleep continuity (sleep bout length)” value was “increased”. In addition, for the setting “after 40 mg/kg, oral gavage”, the “Persistence of REM sleep inhibiting and NREM sleep promoting effects” value is reported as “at least 48 hours”; the “REM sleep inhibiting and NREM sleep promoting effects still observed after dosing” value was ≥ 4.5 days. For the setting “dose 5 (mg/kg), oral gavage”, the “Maximal change in REM sleep” value was −23.8* minutes. In addition, for the setting “dose 10 (mg/kg), oral gavage”, the “Maximal change in REM sleep” value was −42.6* minutes. Under “dose 40 (mg/kg), oral gavage”, the “Maximal change in REM sleep” value is on record as −74.4* minutes. Besides, the “Effect on sleep (REM and NREM) in a laboratory animal” value (summary statement, no dose given) is “affected sleep (REM and NREM)”.
